Measured values reported in PubChem BioAssay (NCI).
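Where inhibition never reached the appropriate level, the endpoint shown equals the highest concentration tested. Otherwise, values were interpolated linearly from a five-concentration, 48-hour dose response in 96-well plates. At the TGI there is no net growth.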

Legend:
Assay in all cases: NCI-60 cell line screen, 48 h
MALME-3M melanoma = tested on: MALME-3M melanoma
IGROV1 ovarian = tested on: IGROV1 ovarian
HT29 colon = tested on: HT29 colon
HCC-2998 colon = tested on: HCC-2998 colon
SK-OV-3 ovarian = tested on: SK-OV-3 ovarian
XF 498 CNS = tested on: XF 498 CNS
HCT-116 colon = tested on: HCT-116 colon
KM12 colon = tested on: KM12 colon
SK-MEL-5 melanoma = tested on: SK-MEL-5 melanoma
SN12C renal = tested on: SN12C renal
SNB-78 CNS = tested on: SNB-78 CNS
EKVX NSCLC = tested on: EKVX NSCLC
K-562 leukemia = tested on: K-562 leukemia
NCI-H460 lung = tested on: NCI-H460 lung
SF-539 CNS = tested on: SF-539 CNS
NCI-H23 lung = tested on: NCI-H23 lung
CCRF-CEM leukemia = tested on: CCRF-CEM leukemia
SNB-75 CNS = tested on: SNB-75 CNS
DMS 273 small cell lung = tested on: DMS 273 small cell lung
COLO 205 colon = tested on: COLO 205 colon
TK-10 renal = tested on: TK-10 renal
RXF 393 renal = tested on: RXF 393 renal
CAKI-1 renal = tested on: CAKI-1 renal
UO-31 renal = tested on: UO-31 renal
RPMI-8226 leukemia = tested on: RPMI-8226 leukemia
SW-620 colon = tested on: SW-620 colon
A498 renal = tested on: A498 renal
DLD-1 colon = tested on: DLD-1 colon
M19-MEL melanoma = tested on: M19-MEL melanoma
ACHN renal = tested on: ACHN renal
MOLT-4 leukemia = tested on: MOLT-4 leukemia
SK-MEL-2 melanoma = tested on: SK-MEL-2 melanoma
SF-268 CNS = tested on: SF-268 CNS
OVCAR-3 ovarian = tested on: OVCAR-3 ovarian
HOP-18 NSCLC = tested on: HOP-18 NSCLC
SNB-19 CNS = tested on: SNB-19 CNS
HOP-62 NSCLC = tested on: HOP-62 NSCLC
A549 NSCLC = tested on: A549 NSCLC
LOX IMVI melanoma = tested on: LOX IMVI melanoma
SF-295 CNS = tested on: SF-295 CNS
M14 melanoma = tested on: M14 melanoma
KM20L2 colon = tested on: KM20L2 colon
HL-60(TB) leukemia = tested on: HL-60(TB) leukemia
OVCAR-4 ovarian = tested on: OVCAR-4 ovarian
OVCAR-8 ovarian = tested on: OVCAR-8 ovarian
HCT-15 colon = tested on: HCT-15 colon
UACC-62 melanoma = tested on: UACC-62 melanoma
OVCAR-5 ovarian = tested on: OVCAR-5 ovarian
DMS 114 small cell lung = tested on: DMS 114 small cell lung
U251 CNS = tested on: U251 CNS
786-0 renal = tested on: 786-0 renal
UACC-257 melanoma = tested on: UACC-257 melanoma
NCI-H226 lung = tested on: NCI-H226 lung
SR leukemia = tested on: SR leukemia
NCI-H522 lung = tested on: NCI-H522 lung
SK-MEL-28 melanoma = tested on: SK-MEL-28 melanoma
HOP-92 NSCLC = tested on: HOP-92 NSCLC
LXFL 529 NSCLC = tested on: LXFL 529 NSCLC

Measured: TGI

CC1CC(=O)CC[C@@H]1OCc1ccccc1 (some centres not stated)
not listed: NCI-H226 lung | SR leukemia | NCI-H522 lung | SK-MEL-28 melanoma | HOP-92 NSCLC | LXFL 529 NSCLC
> 100 µM: all other assays above

O=C(/C=C/c1ccc(OCCCOc2ccc(/C=C/C(=O)c3ccc(Cl)cc3)cc2)cc1)c1ccc(Cl)cc1
not listed: UO-31 renal | A498 renal
> 100 µM: all other assays above

COC(=O)C1=C(c2cc(OC)c(OC)c(OC)c2)OC(c2cc(OC)c(OC)c(OC)c2)C1 (configuration not stated)
36.9 µM: LOX IMVI melanoma
58.5 µM: HT29 colon
51.4 µM: A498 renal
96.6 µM: RPMI-8226 leukemia
46 µM: IGROV1 ovarian
68.5 µM: MOLT-4 leukemia
50 µM: M14 melanoma
33 µM: COLO 205 colon
72.3 µM: MALME-3M melanoma
60 µM: SR leukemia
51.5 µM: UACC-257 melanoma
72 µM: XF 498 CNS
32.4 µM: KM12 colon
63.9 µM: TK-10 renal
32.9 µM: HCT-116 colon
27.5 µM: UACC-62 melanoma
55.1 µM: SN12C renal
70.8 µM: 786-0 renal
48.9 µM: NCI-H23 lung
71 µM: SK-OV-3 ovarian
54.9 µM: LXFL 529 NSCLC
51.1 µM: SF-295 CNS
36.5 µM: HOP-92 NSCLC
41.4 µM: HCC-2998 colon
82.9 µM: DMS 114 small cell lung
32.6 µM: SK-MEL-5 melanoma
78.2 µM: M19-MEL melanoma
75.2 µM: RXF 393 renal
48.6 µM: OVCAR-3 ovarian
73.6 µM: KM20L2 colon
50.2 µM: HOP-18 NSCLC
78.1 µM: SNB-75 CNS
70.6 µM: OVCAR-4 ovarian
40 µM: UO-31 renal
65.4 µM: ACHN renal
60.9 µM: CAKI-1 renal
44.2 µM: U251 CNS
75.4 µM: NCI-H226 lung
75.1 µM: SF-539 CNS
not listed: EKVX NSCLC | SK-MEL-2 melanoma | HL-60(TB) leukemia | NCI-H522 lung
> 100 µM: all other assays above
